Results on 15 compounds are retold here after patent US20050096350A1, “Halo substituted benzo[b]thiophenes as therapeutic agents” (priority 2003, published 2005).

The first assay deals with T1, PI3Kγ (purified recombinant p101/p110γ protein) (Homo sapiens, UniProt P48736).
T1 construct: HA; made in house; host or cells: Spodoptera frugiperda Sf9 cells (baculovirus coinfection)
T1 sequence (P48736 whole entry, species assumed): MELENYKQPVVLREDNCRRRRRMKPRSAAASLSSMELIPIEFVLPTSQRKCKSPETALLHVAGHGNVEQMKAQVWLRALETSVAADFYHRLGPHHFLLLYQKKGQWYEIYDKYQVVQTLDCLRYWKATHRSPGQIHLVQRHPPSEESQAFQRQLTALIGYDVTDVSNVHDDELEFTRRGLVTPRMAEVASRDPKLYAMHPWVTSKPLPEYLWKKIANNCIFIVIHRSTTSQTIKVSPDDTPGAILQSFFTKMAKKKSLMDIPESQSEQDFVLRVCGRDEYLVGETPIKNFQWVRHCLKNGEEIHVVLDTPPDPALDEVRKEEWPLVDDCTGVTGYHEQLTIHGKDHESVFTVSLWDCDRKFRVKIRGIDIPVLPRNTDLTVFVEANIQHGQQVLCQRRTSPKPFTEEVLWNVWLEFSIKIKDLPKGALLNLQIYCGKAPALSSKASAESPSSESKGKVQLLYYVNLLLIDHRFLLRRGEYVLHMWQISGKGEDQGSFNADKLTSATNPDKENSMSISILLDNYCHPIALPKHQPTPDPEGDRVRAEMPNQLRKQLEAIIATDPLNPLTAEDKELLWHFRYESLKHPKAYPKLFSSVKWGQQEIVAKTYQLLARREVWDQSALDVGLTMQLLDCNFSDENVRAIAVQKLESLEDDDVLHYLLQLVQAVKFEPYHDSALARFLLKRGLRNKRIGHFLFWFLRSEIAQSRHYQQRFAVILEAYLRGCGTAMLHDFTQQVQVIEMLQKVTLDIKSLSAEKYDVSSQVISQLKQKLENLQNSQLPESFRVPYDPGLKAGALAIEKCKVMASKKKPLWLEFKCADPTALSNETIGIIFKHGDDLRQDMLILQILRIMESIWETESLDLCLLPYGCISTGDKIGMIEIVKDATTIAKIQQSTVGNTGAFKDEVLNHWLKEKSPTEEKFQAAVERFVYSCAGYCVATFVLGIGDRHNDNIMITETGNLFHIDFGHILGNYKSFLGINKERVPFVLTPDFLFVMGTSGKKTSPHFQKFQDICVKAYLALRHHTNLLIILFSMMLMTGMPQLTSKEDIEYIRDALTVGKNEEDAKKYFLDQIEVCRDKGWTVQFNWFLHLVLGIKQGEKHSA
T1 sequence (Q8WYR1 whole entry partner, species assumed): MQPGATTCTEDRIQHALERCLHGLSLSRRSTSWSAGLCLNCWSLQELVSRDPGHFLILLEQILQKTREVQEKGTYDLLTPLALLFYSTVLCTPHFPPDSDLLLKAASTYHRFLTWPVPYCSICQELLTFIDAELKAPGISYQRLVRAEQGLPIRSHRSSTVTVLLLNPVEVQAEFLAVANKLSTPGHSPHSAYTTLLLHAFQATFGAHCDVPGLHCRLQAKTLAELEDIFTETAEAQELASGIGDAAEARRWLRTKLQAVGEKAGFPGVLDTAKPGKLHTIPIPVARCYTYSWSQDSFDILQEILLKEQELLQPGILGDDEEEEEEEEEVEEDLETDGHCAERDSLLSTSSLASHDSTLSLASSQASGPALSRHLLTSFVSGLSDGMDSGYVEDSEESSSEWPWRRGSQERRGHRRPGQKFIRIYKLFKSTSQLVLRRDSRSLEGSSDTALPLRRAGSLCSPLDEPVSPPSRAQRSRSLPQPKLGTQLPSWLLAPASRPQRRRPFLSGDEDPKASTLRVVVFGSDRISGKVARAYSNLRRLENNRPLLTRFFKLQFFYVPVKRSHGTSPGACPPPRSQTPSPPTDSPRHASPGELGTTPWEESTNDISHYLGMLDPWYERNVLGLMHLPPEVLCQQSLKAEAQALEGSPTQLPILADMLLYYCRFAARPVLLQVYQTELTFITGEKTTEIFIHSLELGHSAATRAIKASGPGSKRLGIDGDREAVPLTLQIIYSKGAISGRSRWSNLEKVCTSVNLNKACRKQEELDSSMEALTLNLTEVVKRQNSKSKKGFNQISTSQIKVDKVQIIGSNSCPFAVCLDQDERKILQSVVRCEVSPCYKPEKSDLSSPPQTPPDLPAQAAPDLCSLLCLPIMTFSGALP
Briefly: PI3Kγ in vitro kinase assay. It counts as biochemical. The conditions noted are these: 20 μM ATP, 25 μM PIP2, G protein β1/γ2 subunits. As for the experimental part:
Spodtera frugiperda cells, grown in ESF921 media, were coinfected with baculovirus expressing a glu-tagged p101 and baculovirus expressing an HA-tagged […], at a 3:1 ratio of p101 baculovirus to p110γ baculovirus. Sf9 cells were grown to 1×10^7 total cells/mL in 10 L bioreactors and harvested 48-72 hours post infection. Samples of infected cells were then tested for expression of p101/p110γ PI3 kinase by immunoprecipitation and Western Blot analysis methods (see below).
To purify PI3Kγ, 4 volumes of room temperature hypotonic lysis buffer (1 mM MgCl2, 1 mM DTT, 5 mM EGTA, 1 mM Pefabloc, 0.5 μM aprotinin, 5 μM leupeptin, 2 μM pepstatin, 5 μM E64, pH 8) per gram of cell paste, was poured onto frozen cell pellets with stirring, then lysed in a nitrogen “bomb” at 400 psi (599HC T316, Parr Instrument Co, Moline, Ill.). NaCl was added to 150 mM, and sodium cholate was added to 1% and mixed for another 45 minutes. The lysates were clarified by centrifugation for 25 minutes at 14,000 rpm. The lysates were then loaded over anti-glu-linked Protein-G Sepaharose beads (Covance Research Products, Richmond, Calif.) using 20 mL resin/50 g cell paste. The column was washed with 15 volumes of wash buffer (1 mM DTT, 0.2 mM EGTA, 1 mM Pefabloc, 0.5 μM aprotinin, 5 μM leupeptin, 2 μM pepstatin, 5 μM E64, 150 mM NaCl, 1% sodium cholate, pH 8). PI3Kγ was eluted with 6 column volumes of wash buffer that contain 100 μg/mL of a peptide that competes for binding of the glu tag. The column fractions with the eluted protein (determined by taking OD280 readings) were collected and dialyzed in 0.2 mM EGTA, 1 mM DTT, 1 mM Pefabloc, 5 μM leupeptin, 0.5% sodium cholate, 150 mM NaCl, and 50% glycerol, pH 8. The fractions were stored at −80° C. until further use.
Spodtera frugiperda cells were coinfected with baculovirus expressing a glu-tagged G protein β1 and baculovirus expressing a G protein β2, at a 1:1 ratio of glu-tagged G protein β1 baculovirus to G protein β2 baculovirus. Sf9 cells are grown in 10 L bioreactors and harvested 48-72 hours post infection. Samples of infected cells were tested for G protein β1/β2 expression by Western Blot analysis, as described below. Cell lysates were homogenized and loaded onto a column of glu-tagged beads as in Biological Example 1 and competed off the column with a glu peptide and processed as described in Biological Example 1.
The inhibitory properties of the compounds in Table 1 were assayed in an in vitro PI3K assay. In a 96-well polypropylene plate, each well was spotted with 2 μL of 50 times the desired final concentration of compound in DMSO. Purified recombinant p101/p110γ protein (0.03 μg; ˜2.7 nM) and G protein β1/γ2 subunits (0.09 μg; ˜57.7 nM) for each reaction was combined in the assay buffer (30 mM HEPES, 100 mM NaCl, 1 mM EGTA, and 1 mM DTT). ATP and [γ-^32P-ATP] (0.09 μCi) were added to this mixture so that the final ATP concentration in the reaction was 20 μM. Lipid micelles were formed by sonicating phosphatidylinositol-4,5-diphosphate (PIP2), phosphatidylethanolamine (PE), and Na-cholate in the assay buffer for 10 minutes, adding MgCl2 and incubating on ice for 20 minutes, for final concentrations of 25 μM PIP2, 300 μM PE, 0.02% Na-cholate, and 10 mM MgCl2 in the reaction. The reactions were started by adding equal volumes lipid and enzyme mixture in a total volume of 50 μL, allowed to run for 20 minutes at room temperature, and stopped with 100 μL 75 mM H3PO4. The lipid product was transferred to a glass fiber filter plate and washed with 75 mM H3PO4 several times. The presence of radioactive lipid product (PIP3) was measured by adding Wallac Optiphase mix to each well and counting in a Wallac 1450 Trilux plate reader (PerkinElmer Life Sciences Inc., Boston, Mass. 02118). The IC50 for each compound tested is reported in μM in the Tables above.
As usually defined, the IC50 is the midpoint of a concentration-inhibition curve. As for `COc1cc2c(Oc3ccc(C(C)C)cc3)c(C(=O)Nc3nn[nH]n3)sc2cc1F` [Example 6, 6-Fluoro-3-(4-isopropyl-phenoxy)-5-methoxy-benzo[b]thiophene-2-carboxylic acid (2H-tetrazol-5-yl)-amide], the IC50 was determined as 13.5 nM.

`COc1cccc(Sc2c(C(=O)Nc3nnn[nH]3)sc3cc(F)c(OC)cc23)c1` [Example 18, 6-Fluoro-5-methoxy-3-(3-methoxy-phenylsulfanyl)-benzo[b]thiophene-2-carboxylic acid (1H-tetrazol-5-yl)-amide]: the IC50 worked out at 470 nM.

`COC(=O)c1ccc(Sc2c(C(=O)Nc3nnn[nH]3)sc3ccc(OC)c(F)c23)cc1` [Example 26, 4-[4-Fluoro-5-methoxy-2-(1H-tetrazol-5-ylcarbamoyl)-benzo[b]thiophen-3-ylsulfanyl]-benzoic acid methyl ester]: the IC50 stood at 20000 nM.

Turning to `COc1ccc(Sc2c(C(=O)Nc3nnn[nH]3)sc3ccc(OC)c(F)c23)cc1` [Example 33, 4-Fluoro-5-methoxy-3-(4-methoxy-phenylsulfanyl)-benzo[b]thiophene-2-carboxylic acid (1H-tetrazol-5-yl)-amide], the IC50 worked out at 19400 nM.

With `COc1cc2c(Sc3ccccc3)c(C(=O)Nc3nnn[nH]3)sc2cc1F` [Example 19, 6-Fluoro-5-methoxy-3-phenylsulfanyl-benzo[b]thiophene-2-carboxylic acid (1H-tetrazol-5-yl)-amide], the IC50 is 32.5 nM.

As to `CCc1cccc(Oc2c(C(=O)Nc3nn[nH]n3)sc3cc(F)c(OC)cc23)c1` [Example 5, 3-(3-Ethyl-phenoxy)-6-fluoro-5-methoxy-benzo[b]thiophene-2-carboxylic acid (2H-tetrazol-5-yl)-amide], the IC50 stood at 62.5 nM.

As for `COc1cc2c(OC3CCOCC3)c(C(=O)Nc3nn[nH]n3)sc2cc1F` [Example 14, 6-Fluoro-5-methoxy-3-(tetrahydro-pyran-4-yloxy)-benzo[b]thiophene-2-carboxylic acid (2H-tetrazol-5-yl)-amide], the IC50 turned out to be 62.5 nM.

For `COC(=O)c1cccc(Sc2c(C(=O)Nc3nnn[nH]3)sc3ccc(OC)c(F)c23)c1` [Example 24, 3-[4-Fluoro-5-methoxy-2-(1H-tetrazol-5-ylcarbamoyl)-benzo[b]thiophen-3-ylsulfanyl]-benzoic acid methyl ester], the IC50 stood at 4200 nM.

On to `COc1ccc2sc(C(=O)Nc3nnn[nH]3)c(Sc3ccc(CCC(=O)O)cc3)c2c1F` [Example 36, 3-{4-[4-Fluoro-5-methoxy-2-(1H-tetrazol-5-ylcarbamoyl)-benzo[b]thiophen-3-ylsulfanyl]-phenyl}-propionic acid], for which the IC50 was 7180 nM.

Turning to `COc1ccc2sc(C(=O)Nc3nnn[nH]3)c(Sc3ccc(O)cc3)c2c1F` [Example 22, 4-Fluoro-3-(4-hydroxy-phenylsulfanyl)-5-methoxy-benzo[b]thiophene-2-carboxylic acid (1H-tetrazol-5-yl)-amide], the half-maximal inhibitory concentration (IC50) was determined as 2760 nM.

Take `COc1cc2c(OC3CCCCCC3)c(C(=O)Nc3nn[nH]n3)sc2cc1F` [Example 8, 3-Cycloheptyloxy-6-fluoro-5-methoxy-benzo[b]thiophene-2-carboxylic acid (2H-tetrazol-5-yl)-amide]: the IC50 is 3.4 nM.

Consider `COc1ccc2sc(C(=O)Nc3nnn[nH]3)c(Sc3cccc(C(=O)O)c3)c2c1F` [Example 25, 3-[4-Fluoro-5-methoxy-2-(1H-tetrazol-5-ylcarbamoyl)-benzo[b]thiophen-3-ylsulfanyl]-benzoic acid], for which the IC50 was found to be 2390 nM.

Turning to `COc1cc2c(OC3CCC3)c(C(=O)Nc3nn[nH]n3)sc2cc1F` [Example 16, 3-Cyclobutoxy-6-fluoro-5-methoxy-benzo[b]thiophene-2-carboxylic acid (2H-tetrazol-5-yl)-amide], the IC50 is 32.5 nM.

As for “3-(4-Chloro-phenylsulfanyl)-6-fluoro-5-methoxy-benzo[b]thiophene-2-carboxylic acid (1H-tetrazol-5-yl)-amide [Example 20]”, the IC50 turned out to be 45.5 nM.

The assay is the same for the next values; noted with them: 20 μM ATP, 25 μM PIP2, G protein β1/γ2 subunits, table b291.
In the case of `COc1cc2c(SC3CCCC3)c(C(=O)Nc3nnn[nH]3)sc2cc1F` [Example 42, 3-Cyclopentylsulfanyl-6-fluoro-5-methoxy-benzo[b]thiophene-2-carboxylic acid (1H-tetrazol-5-yl)-amide], the IC50 turned out to be 11 nM.
